Experimental findings from patent US20230331683A1, “INHIBITORS OF SPINSTER HOMOLOG 2 (SPNS2) FOR USE IN THERAPY” (University of Virginia Patent Foundation, priority 2020, published 2023) are described below.

Counter-ions that a name gives are not always drawn.

This experiment concerns the target mouse SPNS2 (Mus musculus (Mouse), UniProt Q91VM4). In words: S1P Transporter Assay (S1P release from whole cells expressing SPNS2). The settings on record: in vitro inhibition against SPNS2; HeLa cells expressing mouse SPNS2, S1P release into media after 18 hours; compounds as their pharmaceutical salts. It is filed as cell-based. How it is done: Transporter assays are vectorial and therefore require measurement of the transported analyte in different compartments. The S1P transporter SPNS2 only exports S1P, which obviates measuring uptake of S1P into transporter-expressing cells. Thus, transporter activity was determined by quantifying S1P release from whole cells expressing SPNS2. SPNS2 inhibitor potency was assessed using whole cell assays. HeLa cells expressing mouse SPNS2 were used to determine inhibitor potency (IC50). Cells were plated onto 12 well plates and assayed when the cell monolayers became confluent. Cell growth media (RPMI-1640 containing 10% fetal bovine serum) was replaced with 2 mL of serum-free media (RPMI-1640) containing fatty acid free bovine serum albumin (BSA) (0.2 % w/v) and supplemented with 4-deoxypyridoxine (DOP) (1 mM), NaF (2 mM), Na3VO4 (0.2 mM) to inhibit S1P degradation. Test articles (1 × 10-9 - 1 × 10^-4 M) were assayed in duplicate or triplicate. After 18 hours, media was collected, an internal recovery standard (0.005 mL of 5 × 10^-7 M deuterated (d7) S 1P in methanol) was added, the BSA was precipitated with trichloroacetic acid and the bound S1P extracted with methanol. S1P and S1P-d7 were measured by liquid chromatography mass spectrometry. Inhibitor potency at the human SPNS2 ortholog was determined by an analogous assay using U-937 cells, which endogenously express human SPNS2.

As a reminder, the IC50 is the concentration that inhibits the measured activity by half.

Sequence of mouse SPNS2 (Q91VM4 whole entry): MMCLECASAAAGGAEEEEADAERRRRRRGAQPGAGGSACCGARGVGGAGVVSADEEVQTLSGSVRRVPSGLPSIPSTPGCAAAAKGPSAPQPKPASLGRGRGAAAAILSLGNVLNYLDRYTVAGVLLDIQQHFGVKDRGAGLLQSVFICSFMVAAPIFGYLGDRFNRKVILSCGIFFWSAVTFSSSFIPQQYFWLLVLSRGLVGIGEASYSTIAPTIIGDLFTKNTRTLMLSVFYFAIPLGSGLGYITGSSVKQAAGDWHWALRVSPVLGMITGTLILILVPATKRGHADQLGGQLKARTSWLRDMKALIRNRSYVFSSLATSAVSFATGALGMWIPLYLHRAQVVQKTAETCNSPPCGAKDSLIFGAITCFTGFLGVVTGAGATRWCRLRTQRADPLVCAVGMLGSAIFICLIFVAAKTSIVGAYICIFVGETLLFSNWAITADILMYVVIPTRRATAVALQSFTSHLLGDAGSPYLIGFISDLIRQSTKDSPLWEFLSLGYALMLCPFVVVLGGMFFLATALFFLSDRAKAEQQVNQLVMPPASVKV

Turning to `CCCCCCCCc1ccc2oc(NCCN)nc2c1` [Compound 13a, N^1-octylbenzo[d]oxazol-2-yl)ethane-1,2-diamine hydrochloride], the IC50 was > 2 µM.

On to `CCCCCCCCCCc1ccc2nc(N3CC[C@@H](N)C3)oc2c1` [Compound 13aa, (R)(6-decylbenzo[d]oxazol-2-yl)pyrrolidin-3-amine Hydrochloride], for which the IC50 was > 2 µM.

Take `CCCCCCCCCCc1ccc2nc(NC3CCNCC3)oc2c1` [Compound 13ab, 6-decyl-N-(piperidin-4-yl)benzo[d]oxazol-2-amine Hydrochloride]: the half-maximal inhibitory concentration (IC50) is ≤ 2 µM.

Regarding `CCCCCCCCCc1ccc2oc(NCCN)nc2c1` [Compound 13b, N^1-nonylbenzo[d]oxazol-2-yl)ethane-1,2-diamine hydrochloride], the half-inhibitory concentration (IC50) is > 2 µM.

For the compound `CCCCCCCCCCc1ccc2oc(NCCN)nc2c1` [Compound 13c, N^1-decylbenzo[d]oxazol-2-yl)ethane-1,2-diamine hydrochloride], the IC50 is > 2 µM.

Take `CCCCCCCCCCCc1ccc2oc(NCCN)nc2c1` [Compound 13d, N^1-undecylbenzo[d]oxazol-2-yl)ethane-1,2-diamine hydrochloride]: the IC50 was > 2 µM.

For `CCCCCCCCCCCCc1ccc2oc(NCCN)nc2c1` [Compound 13e, N^1-dodecylbenzo[d]oxazol-2-yl)ethane-1,2-diamine hydrochloride], the IC50 is > 2 µM.

Regarding `CCCCCCCCCCc1ccc2oc(NCCCN)nc2c1` [Compound 13f, hydrochloride], the concentration for half-maximal inhibition (IC50) is > 2 µM.

With `CCCCCCCCCCc1ccc2oc(NCCCCN)nc2c1` [Compound 13g, N^1-decylbenzo[d]oxazol-2-yl)butane-1,4-diamine carbamate hydrochloride], the 50% inhibitory concentration (IC50) was > 2 µM.

As for `CCCCCCCCCCc1ccc2oc(NCCCCCN)nc2c1` [Compound 13h, N^1-decylbenzo[d]oxazol-2-yl)pentane-1,5-diamine hydrochloride], the half-maximal inhibitory concentration (IC50) is > 2 µM.

For the compound `CCCCCCCCCCc1ccc2oc(NC3CNC3)nc2c1` [Compound 13i, N-(azetidin-3-yl)-5-decylbenzo[d]oxazol-2-amine 2,2,2-trifluoroacetate], the 50% inhibitory concentration (IC50) is > 2 µM.

In the case of `CCCCCCCCCCc1ccc2oc(N[C@@H]3CNC[C@@H]3F)nc2c1` [Compound 13l, 5-decyl-N-((3R,4S)-4-fluoropyrrolidin-3-yl)benzo[d]oxazol-2-amine hydrochloride], the IC50 is ≤ 2 µM.

On to `CCCCCCCCCCc1ccc2oc(NC3CCNCC3)nc2c1` [Compound 13m, 5-decyl-N-(piperidin-4-yl)benzo[d]oxazol-2-amine Hydrochloride], for which the IC50 was ≤ 2 µM.

As for `CCCCCCCCCCc1ccc2oc(N3CC[C@H](N)C3)nc2c1` [Compound 13n, (S)(5-decylbenzo[d]oxazol-2-yl)pyrrolidin-3-amine Hydrochloride], the IC50 is > 2 µM.

`CCCCCCCCCCc1ccc2oc(N3CC[C@@H](N)C3)nc2c1` [Compound 13o, (R)(5-decylbenzo[d]oxazol-2-yl)pyrrolidin-3-amine Hydrochloride]: the IC50 is > 2 µM.

On to `CCCCCCCCCCc1ccc2oc(N3CCNCC3)nc2c1` [Compound 13p, 5-Decyl(piperazin-1-yl)benzo[d]oxazole Hydrochloride], for which the half-inhibitory concentration (IC50) is > 2 µM.

In the case of `CCCCCCCCCCc1ccc2nc(NCCN)oc2c1` [Compound 13q, N^1-decylbenzo[d]oxazol-2-yl)ethane-1,2-diamine hydrochloride], the IC50 is > 2 µM.

As for `CCCCCCCCCCc1ccc2nc(NCCCN)oc2c1` [Compound 13r, N^1-decylbenzo[d]oxazol-2-yl)propane-1,3-diamine hydrochloride], the IC50 is > 2 µM.

`CCCCCCCCCCc1cccc2nc(NCCN)oc12` [Compound 13u, N^1-decylbenzo[d]oxazol-2-yl)ethane-1,2-diamine hydrochloride]: the half-maximal inhibitory concentration (IC50) is > 2 µM.

For the compound `CCCCCCCCCCc1cccc2nc(NCCCN)oc12` [Compound 13v, N^1-decylbenzo[d]oxazol-2-yl)propane-1,3-diamine hydrochloride], the half-inhibitory concentration (IC50) was > 2 µM.

Consider `CCCCCCCCCCc1cccc2oc(NCCN)nc12` [Compound 13w, N^1-decylbenzo[d]oxazol-2-yl)ethane-1,2-diamine hydrochloride], for which the IC50 was > 2 µM.

Turning to `CCCCCCCCCCc1cccc2oc(NCCCN)nc12` [Compound 13x, N^1-decylbenzo[d]oxazol-2-yl)propane-1,3-diamine hydrochloride], the concentration for half-maximal inhibition (IC50) was > 2 µM.

For the compound `CCCCCCCCCCc1ccc2nc(N(CCN)CCN)oc2c1` [Compound 13y, N1-aminoethyl)-N1-(6-decylbenzo[d]oxazol-2-yl)ethane-1,2-diamine dihydrochloride], the IC50 was ≤ 2 µM.

In the case of `CCCCCCCCCCc1ccc2nc(N3CC[C@H](N)C3)oc2c1` [Compound 13z, (S)(6-decylbenzo[d]oxazol-2-yl)pyrrolidin-3-amine Hydrochloride], the IC50 was > 2 µM.

As for `CCCCCCCCCCc1ccc2nc(NCCN)sc2c1` [Compound 17a, N^1-decylbenzo[d]thiazol-2-yl)ethane-1,2-diamine hydrochloride], the half-inhibitory concentration (IC50) was > 2 µM.

For the compound `CCCCCCCCCCc1ccc2nc(NCCCN)sc2c1` [Compound 17b, N^1-decylbenzo[d]thiazol-2-yl)propane-1,3-diamine hydrochloride], the IC50 is > 2 µM.

Regarding `CCCCCCCCCCc1ccc(NC(=O)N2CCC(N)CC2)cc1` [Compound 20a, 4-amino-N-(4-decylphenyl)piperidine-1-carboxamide Hydrochloride], the half-inhibitory concentration (IC50) is ≤ 2 µM.

Turning to `CCCCCCCCCCc1ccc(NC(=O)NCCCN)cc1` [Compound 20b, 1-Aminopropyl)-3-(4-decylphenyl)urea Hydrochloride], the IC50 was ≤ 2 µM.

In the case of `CCCCCCCCCCc1ccc(NC(=O)OCCN)cc1` [Compound 23a, 2-Aminoethyl (4-decylphenyl)carbamate Hydrochloride], the IC50 was > 2 µM.

On to `CCCCCCCCCCc1ccc(NC(=O)O[C@H]2CCNC2)cc1` [Compound 23b, (S)-pyrrolidin-3-yl (4-decylphenyl)carbamate Hydrochloride], for which the half-inhibitory concentration (IC50) was > 2 µM.

In the case of `CCCCCCCCCCc1ccc(NC(=O)O[C@@H]2CCNC2)cc1` [Compound 23c, (R)-pyrrolidin-3-yl (4-decylphenyl)carbamate Hydrochloride], the concentration for half-maximal inhibition (IC50) was ≤ 2 µM.

With `CCCCCCCCCCc1ccc(C(=O)N2CCNCC2)cc1` [Compound 26c, Decylphenyl)(piperazin-1-yl)methanone Hydrochloride], the IC50 was ≤ 2 µM.

In the case of `CCCCCCCCCCc1ccc(C(=O)NCCCN)cc1` [Compound 26d, N-aminopropyl)-4-decylbenzamide Hydrochloride], the half-maximal inhibitory concentration (IC50) is ≤ 2 µM.

In the case of `CCCCCCCCCCc1ccc(C(=O)NCCN)cc1` [Compound 26e, N-aminoethyl)-4-decylbenzamide Hydrochloride], the IC50 was > 2 µM.

On to `CCCCCCCCCCc1ccc2nc(CCCN)[nH]c2c1` [Compound 31, 3-decyl-1H-benzo[d]imidazol-2-yl)propan-1-amine Hydrochloride], for which the IC50 is > 2 µM.

Take `CCCCCCCCCCc1ccc(NC(=O)N[C@H]2CCNC2)cc1` [Compound 34, (S)(4-decylphenyl)-3-(pyrrolidin-3-yl)urea Hydrochloride]: the 50% inhibitory concentration (IC50) was ≤ 2 µM.

Consider `CCCCCCCCCCc1ccc(NC(=O)N2CCNCC2)cc1` [Compound 35, N-decylphenyl)piperazine-1-carboxamide Hydrochloride], for which the IC50 was ≤ 2 µM.

With `CCCCCCCCCCc1ccc2oc(NCC3CCNCC3)nc2c1` [Compound 36, 5-decyl-N-(piperidin-4-ylmethyl)benzo[d]oxazol-2-amine], the half-inhibitory concentration (IC50) was > 2 µM.

Turning to `CCCCCCCCCCc1ccc(C(=O)NC2CCNCC2)cc1` [Compound 39, 4-decyl-N-(piperidin-4-yl)benzamide Hydrochloride], the IC50 was ≤ 2 µM.
